Results from patent US20030195376A1, “Novel intermediate and processes for its preparation and conversion into a pharmacologically-active agent” (priority 2002, published 2003).

Columns and labels:
[1] = Solubility in solvents (product characteristics); format: physicochemical; settings: in methanol
[2] = tested on: neuronal uptake of dopamine; settings: relative to serotonin-norepinephrine uptake; cited from earlier work
[3] = in vivo; cited from earlier work
[4] = ethanol, chloroform, dichloromethane, acetone, ethyl acetate, benzene, toluene and isopropyl alcohol

COc1ccc(C2(C#N)OC23CCCCC3)cc1 (stereo not shown) [formula (I), 2-(4-methoxy-phenyl)-1-oxa-spiro[2.5]octane-2-carbonitrile]
Solubility [1, 4]: Soluble in methanol, ethanol, chloroform, dichloromethane,

COc1ccc(C(O)C2CCCCC2)cc1 (stereo not shown) [formula (V), cyclohexyl-(4-methoxy-phenyl)-methanol]
Solubility ([1]; ethanol, chloroform, dichloromethane, acetone, ethyl acetate etc.): Soluble in methanol, ethanol, chloroform,

COc1ccc(C(CN)C2(O)CCCCC2)cc1 (stereo not shown) [formula (X), 1-[2-amino-1-(4-methoxy-phenyl)-ethyl]-cyclohexanol]
Solubility ([1]; chloroform and water): Soluble in methanol, chloroform and water

COc1ccc(C(CN(C)C)C2(O)CCCCC2)cc1 (racemic) [formula (IX), (±)-1-[2-dimethylamino-1-(4-methoxy-phenyl)-ethyl]-cyclohexanol]
inhibition of neuronal uptake of dopamine [2]: to a lesser extent
effectiveness compared with standard antidepressants such as imipramine [3]: as effective as

COc1ccc(C(=O)C2(Br)CCCCC2)cc1 [formula (II), (1-bromo-cyclohexyl)-(4-methoxy-phenyl)-methanone]
Solubility [1, 4]: Soluble in methanol, ethanol, chloroform, dichloromethane,

COc1ccc(C(=O)C2CCCCC2)cc1 [formula (III), cyclohexyl-(4-methoxy-phenyl)-methanone]
Solubility [1, 4]: Soluble in Methanol, ethanol, chloroform, dichloromethane,
